# Assay results from patent publication US8114892B2, “Methods and compositions for the treatment of Parkinson's Disease” (The McLean Hospital Corporation, priority 2006, dated 2012).
# Entries after “also recorded” stand apart in the source; their conditions may differ.
# Experiments:
# Type in all cases: cell-based
# [1] = target: T1, GAL4 DBD-Nurr1 LBD (Homo sapiens, UniProt P43354); assay: Secondary screening: GAL4-DBD construct fused with Nurr1-LBD, luciferase reporter in SK-N-BE(2)C cells; conditions: incubation for eighteen hours
# T1 construct: expressed in transfected cells; host or cells: SK-N-BE(2)C cells, transient transfection
# T1 sequence (P43354 360-595 limits assumed): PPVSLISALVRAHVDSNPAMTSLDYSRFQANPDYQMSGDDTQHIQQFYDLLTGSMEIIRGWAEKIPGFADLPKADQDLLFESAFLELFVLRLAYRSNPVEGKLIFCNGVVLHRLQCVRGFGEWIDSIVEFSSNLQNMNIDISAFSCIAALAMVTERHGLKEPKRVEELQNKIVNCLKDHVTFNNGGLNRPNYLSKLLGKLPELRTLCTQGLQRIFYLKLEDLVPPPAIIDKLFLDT
# T1 sequence (P04386 1-147 partner limits assumed): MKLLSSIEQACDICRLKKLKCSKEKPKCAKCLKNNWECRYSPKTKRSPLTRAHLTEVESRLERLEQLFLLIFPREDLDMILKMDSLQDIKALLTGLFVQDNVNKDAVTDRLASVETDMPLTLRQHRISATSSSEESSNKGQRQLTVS
# Experimental: FIG. 7 includes a chart showing secondary screening data with primary hit chemicals. Transiently expressed Nurr1 activity in SK-N-BE(2)C cells was measured by luciferase activity after incubation of each compound with GAL4-DBD construct fused with Nurr1-LBD for eighteen hours. […] Also shown is a schematic representation of the GAL4-DBD-Nurr1-LBD fusion construct activating the firefly luciferase reporter gene.
# As a secondary screening system, GAL4 DNA binding domain (DBD) constructs were used, which separately fused whole Nurr1, Nurr1-ligand binding domain (LBD), or Nurr1-DNA binding domain to the yeast GAL4 DBD. […] 6-MP, regulating Nurr1 through a region in the amino terminus, was used as a negative control in this experiment.
# [2] = target: T2, Nurr1 (Homo sapiens, UniProt P43354); assay: Primary screening: Nurr1 effector with 2.6-TH promoter firefly luciferase reporter, transient transfection in SK-N-BE(2)C cells; conditions: incubation for eighteen hours; for Hit identification in repeated primary screening (luciferase activity): pcDNA-Nurr1 construct
# T2 construct: effector plasmid containing the Nurr1 gene; expressed in transfected cells; host or cells: SK-N-BE(2)C human neuroblastoma cells, transient transfection
# T2 sequence (P43354 whole entry): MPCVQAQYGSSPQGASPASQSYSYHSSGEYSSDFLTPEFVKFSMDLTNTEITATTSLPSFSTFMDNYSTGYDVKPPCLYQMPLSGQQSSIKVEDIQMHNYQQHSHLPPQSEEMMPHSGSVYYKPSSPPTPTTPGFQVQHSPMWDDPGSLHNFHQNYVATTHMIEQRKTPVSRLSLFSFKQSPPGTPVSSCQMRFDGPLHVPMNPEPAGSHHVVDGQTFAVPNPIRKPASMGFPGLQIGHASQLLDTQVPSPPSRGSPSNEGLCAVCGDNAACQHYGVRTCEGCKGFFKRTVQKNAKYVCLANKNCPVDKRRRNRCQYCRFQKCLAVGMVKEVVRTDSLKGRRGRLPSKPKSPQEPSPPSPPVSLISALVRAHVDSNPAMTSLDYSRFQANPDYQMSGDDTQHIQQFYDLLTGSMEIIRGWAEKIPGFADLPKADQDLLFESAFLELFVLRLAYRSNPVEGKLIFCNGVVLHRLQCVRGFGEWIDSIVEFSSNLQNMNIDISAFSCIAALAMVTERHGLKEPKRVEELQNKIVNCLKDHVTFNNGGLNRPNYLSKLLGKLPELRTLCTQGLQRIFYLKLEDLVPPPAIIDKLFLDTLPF
# Experimental: FIG. 5A is a chart showing preliminary screening data with a small chemical library. Transiently expressed Nurr1 activity in SK-N-BE(2)C cells was measured by luciferase activity with 2.6-TH promoter after incubation with each compound for eighteen hours. […] Each column has eight different chemical compounds. FIG. 5B is a chart showing further preliminary screening data with a small chemical library. Transiently expressed Nurr1 activity in SK-N-BE(2)C cells was measured by luciferase activity with 2.6-TH promoter after incubation with each compound for eighteen hours. […] Each column has eight different chemical compounds.
# Transiently expressed Nurr1 activity in SK-N-BE(2)C cells was measured by luciferase activity after incubation of each compound with the pcDNA-Nurr1 construct for eighteen hours.
# A cell-based system exploiting Nurr1's activation of TH was created in order to develop an assay for identification of Nurr1-activating compounds. […] In addition, a transient transfection was selected, rather than using stable cell-line transfection, to favor the maximum responsiveness of compounds to the reporter gene in order to detect low-affinity hit chemicals in the first screening. Another parameter considered was the selection of short-sized natural TH promoters with all essential NBRE (Nurr1-binding)-like motifs rather than one specific kind of NBRE-motif, based on the assumption that the natural promoter generates closer biological screening condition than artificially copied promoter and the false positive chemicals due to the interaction of other unrelated transcription factors can be easily ruled out by the effective secondary screening method.
# To explore this new Nurr1 cell based assay system, several combinations of variable parameters, including effector gene promoter, internal control gene promoter, TH promoter size, promoter of internal control gene, transient transfection condition, serum concentration, and DMSO effect were tried. […]
# [3] = system: mouse ES cell-derived neurons (ES cell lines D3 and J1); assay: Dopaminergic neuronal differentiation of ES cells in vitro (5-stage method), TH+/Tuj1+ immunostaining; conditions: 2 uM added at day five of the ES-derived neuronal stage for four days
# Text: FIG. 10A is a pair of photos showing embryonic stem (ES) cell-derived neurons subjected to an indirect immunohistochemical assay (TH+/Tuj1+ staining). ES-derived neurons were immunolabeled with anti-β-tubulin III and anti-TH. Superposition of both proteins under a fluorescent microscope is shown in white. DMSO was used as a control.
# For in vitro differentiation of ES cells, we used the 5-stage method, which is known in the art (see, e.g., Lee et al., Nat. Biotechnol. 18:675-679, 2000) and is useful for distinguishing each stage of developmental progression of ES cells. The mouse blastocyst-derived ES cell lines D3 and J1 were propagated and maintained according to methods well-known in the art (see, e.g., Deacon et al., Exp. Neurol., 149:28-41, 1998, and Chung et al., Stem Cells, 20:139-145, 2002). The mouse ES cells were generated as embryoid bodies (EBs) on nonadherent bacterial dishes for four days in growth medium consisting of DMEM supplemented with 2 mM L-glutamine, 0.001% β-mercaptoethanol, 1× non-essential amino acids (all from Invitrogen), and 10% FBS (Hyclone). The EBs were then plated onto adhesive tissue culture dish surfaces. After 24 hours in culture, selection of nestin-positive cells was performed in serum-free ITSFn medium. […]
SMILES,Hit identification in secondary screening (luciferase activity) ([1]; listed as Amodiaquine),Hit identification in secondary screening (luciferase activity) ([1]; listed as amodiaquine),Hit identification in repeated primary screening (luciferase activity) [2],"Number of TH+ cells during in vitro ES cell differentiation, in comparison with the control DMSO [3]","Luciferase activity compared to control with DMSO, preliminary screening ([2]; 2.6-TH promoter)",Hit identification in secondary screening (luciferase activity) [1]
"CCN(CC)Cc1cc(Nc2ccnc3cc(Cl)ccc23)ccc1O [Amodiaquine (4E), amodiaquine]",identified as hit candidate compounds,hit candidates,hit candidates,increased the number of TH+ cells,,
"CCN(CC)CCCC(C)Nc1ccnc2cc(Cl)ccc12 (stereo not shown) [Chloroquine diphosphate, chloroquine diphosphate]",,,,,apparent increase in luciferase activity,
"O=C(OCC(O)CO)c1ccccc1Nc1ccnc2cc(Cl)ccc12 (stereo not shown) [Glafenine (11D), glafenine]",,,hit candidates,,,identified as hit candidate compounds; also recorded: hit candidates
